Earlier results, collected in patent EP2007386B1, “CAMPTOTHECIN-ANALOG WITH A NOVEL, FLIPPED LACTONE-STABLE, E-RING AND METHODS FOR MAKING AND USING SAME” (BIONUMERIK PHARMACEUTICALS, INC., priority 2006, dated 2007).
“Also recorded” adds a separate entry of the source. Like-named read-outs stand apart in the source and are kept apart here.

What was measured:
[1] = et al
angiogenesis = conditions: mice cornea model; dose levels of 210 mg/kg
[2] = clinical studies in Japan alone
[3] = for Non-Hematologic Toxicity No. of Patients With: Cystitis / Non-Hematologic Toxicity No. of Patients With: Diarrhea: 5-day Course; for Number of Patients with Non-Hematologic Toxicity: Cystitis / Number of Patients with Non-Hematologic Toxicity: Diarrhea: Single-Dose Method
[4] = tested on: advanced malignant melanoma; conditions: fifteen patients, 90-360 mg/m^2 repeated every 2 weeks
[5] = not given; remark: listed apart in the source
[6] = Rothenberg, 90mg QWx 4 Q42 days, 32 pts, 180mg/m^2/wk (50-180)
[7] = 15 mg/m^2x5, 9 patients treated
[8] = 17 mg/m^2x5, 5 patients treated
[9] = 20 mg/m^2x5, 10 patients treated
[10] = 5-Day Course (27 Patients Total), 4 wks
[11] = 5-Day Course (27 Patients Total), 8 wks
[12] = 5-Day Course (27 Patients Total), 12 wks
[13] = Single-Dose Method (34 Patients Total), 3 wks
[14] = Single-Dose Method (34 Patients Total), 6 wks
[15] = Single-Dose Method (34 Patients Total), 9 wks
[16] = Single-Dose Method (34 Patients Total), 12 wks

CCc1c2c(nc3ccc(OC(=O)N4CCC(N5CCCCC5)CC4)cc13)-c1cc3c(c(=O)n1C2)COC(=O)[C@]3(O)CC [CPT-11, 7-ethyl-10-[4-(1-piperidino)-1-piperidino]carbonyloxycamptothecin]
Tumor Type (responses) ([1]; Clavel, 90 min. QDx 3 Q21 Days, 37 pts, 115mg/m^2/d (33-115)): Breast (1 PR); also recorded: Mesothelioma
Toxicity ([1]; Clavel, 90 min. QDx 3 Q21 Days, 37 pts, 115mg/m^2/d (33-115), * = Dose Limiting Toxicity): Neutropenia*; also recorded: diarrhea,; also recorded: vomiting,
Tumor Type (responses) ([1]; Culine, 90 min. Q21 days, 59 pts, 150mg/m^2/wk (50-150)): Esophagus; also recorded: (1 PR) cervix; also recorded: (1 PR) renal; also recorded: (1 PR) Ovarian
Toxicity ([1]; Culine, 90 min. Q21 days, 59 pts, 150mg/m^2/wk (50-150), * = Dose Limiting Toxicity): Fatigue; also recorded: Stomatitis; also recorded: Neutropenia*; also recorded: diarrhea*; also recorded: vomiting,; also recorded: Alopecia
Tumor Type (responses) ([1]; Negoro, 30 min Infusion Weekly, 17 pts, 100mg/m^2 (50-150)): NS CLC (2 PRs)
Toxicity ([1]; Negoro, 30 min Infusion Weekly, 17 pts, 100mg/m^2 (50-150), * = Dose Limiting Toxicity): neutropenia* and diarrhea* and N/V and alopecia, and Liver
Tumor Type (responses) ([1]; Ohe, 120 hr CI Q3wks, 36 pts, 40mg/m^2/d (5-40)): None
Toxicity ([1]; Ohe, 120 hr CI Q3wks, 36 pts, 40mg/m^2/d (5-40), * = Dose Limiting Toxicity): diarrhea*; also recorded: thrombocytopenia; also recorded: Anemia
Toxicity [1, 6]: neutropenia,; also recorded: vomiting,; also recorded: Alopecia
Tumor Type (responses) [1, 6]: Colon Ca
Tumor Type (responses) ([1]; Rowinsky, 90 min Infusion Q21 day, 32 pts, 240mg/m^2 (100-345)): Colon Cancer (1 PR); also recorded: Cervix Ca
Toxicity ([1]; Rowinsky, 90 min Infusion Q21 day, 32 pts, 240mg/m^2 (100-345), * = Dose Limiting Toxicity): Neutropenia*; also recorded: vomiting,; also recorded: diarrhea; also recorded: pain, flushing
effect on neovascularization (angiogenesis): significant reduction of neovascularization
patient deaths directly attributable to drug toxicity [2]: approximately 100

CC[C@@]1(O)C(=O)OCc2c1cc1n(c2=O)Cc2cc3ccccc3nc2-1 [CPT, (S)-4-Ethyl-4-hydroxy-1 H-pyrano[3',4':6,7]indolizino[1,2-b]quinoline-3,14(4H,12H)-dione]
mean urine recovery of CPT (excluding the five patients with impaired excretion): 22.8%
mean urine recovery of CPT (over the first 48 hours, IV camptothecin sodium 0.5 to 10.0 mg/kg): 17.4%

CC[C@@]1(O)C(=O)OCc2c1cc1n(c2=O)Cc2cc3ccccc3nc2-1 [CPT sodium]
Cystitis, 5-Day Course (% of 27 Patients) ([3]; 5-Day Course, 27 patients, P<0.05): 48 (P<0.05) %
Non-Hematologic Toxicity No. of Patients With: Cystitis ([3]; 11 mg/m^2x5, 2 patients treated): 1
Non-Hematologic Toxicity No. of Patients With: Cystitis [3, 7]: 4
Non-Hematologic Toxicity No. of Patients With: Diarrhea [3, 7]: 1
Non-Hematologic Toxicity No. of Patients With: Cystitis [3, 8]: 2
Non-Hematologic Toxicity No. of Patients With: Diarrhea [3, 8]: 4
Non-Hematologic Toxicity No. of Patients With: Cystitis [3, 9]: 6
Non-Hematologic Toxicity No. of Patients With: Diarrhea [3, 9]: 4
Non-Hematologic Toxicity No. of Patients With: Diarrhea ([3]; 22 mg/m^2x5, 1 patient treated): 1
Cystitis, Single Dose (% of 34 Patients) ([3]; Single Dose, 34 patients): 24%
Number of Patients with Non-Hematologic Toxicity: Cystitis ([3]; 100 mg/m^2, 6 patients treated): 2
Number of Patients with Non-Hematologic Toxicity: Cystitis ([3]; 110 mg/m^2, 2 patients treated): 1
Number of Patients with Non-Hematologic Toxicity: Diarrhea ([3]; 110 mg/m^2, 2 patients treated): 1
Number of Patients with Non-Hematologic Toxicity: Cystitis ([3]; 120 mg/m^2, 7 patients treated): 2
Number of Patients with Non-Hematologic Toxicity: Diarrhea ([3]; 120 mg/m^2, 7 patients treated): 4
Number of Patients with Non-Hematologic Toxicity: Cystitis ([3]; 180 mg/m^2, 9 patients treated): 3
Number of Patients with Non-Hematologic Toxicity: Diarrhea ([3]; 180 mg/m^2, 9 patients treated): 2
Objective Results: Stable (patients) (gastrointestinal cancer; [10]): 12
Objective Results: Worse (patients) (gastrointestinal cancer; [10]): 14
Objective Results: Improved (patients) (gastrointestinal cancer; 5-Day Course (27 Patients Total), 4 wks after start of therapy): 1
Objective Results: Stable (patients) (gastrointestinal cancer; [11]): 7
Objective Results: Worse (patients) (gastrointestinal cancer; [11]): 20
Objective Results: Stable (patients) (gastrointestinal cancer; [12]): 6
Objective Results: Worse (patients) (gastrointestinal cancer; [12]): 21
Objective Results: Stable (patients) (gastrointestinal cancer; [13]): 17
Objective Results: Worse (patients) (gastrointestinal cancer; [13]): 13
Objective Results: Improved (patients) (gastrointestinal cancer; Single-Dose Method (34 Patients Total), 3 wks after start of therapy): 4
Objective Results: Improved (patients) (gastrointestinal cancer; [14]): 2
Objective Results: Stable (patients) (gastrointestinal cancer; [14]): 11
Objective Results: Worse (patients) (gastrointestinal cancer; [14]): 21
Objective Results: Improved (patients) (gastrointestinal cancer; [15]): 2
Objective Results: Stable (patients) (gastrointestinal cancer; [15]): 8
Objective Results: Worse (patients) (gastrointestinal cancer; [15]): 24
Objective Results: Stable (patients) (gastrointestinal cancer; [16]): 6
Objective Results: Worse (patients) (gastrointestinal cancer; [16]): 28
patients with evidence of partial objective improvement (gastrointestinal cancer; after 2 months (8 or 9 weeks), of 61 patients): two
patients who showed improvement (gastrointestinal cancer; at 3 months, of 61 patients): none
patients with less pronounced transient tumor regression [4]: three
patients with myelosuppression [4]: 11
patients with a 50% or greater decrease in tumor diameter ([4]; rapid IV injection): None
patients with dose limiting bladder toxicity ([5]; doses of 20 to 30 mg/m^2, fifteen patients, intravenous push): three
additional patients with bladder toxicity ([5]; doses of 30 and 44 mg/m^2): two
clinical benefit ([5]; eight patients with measurable disease, 5-day courses at dose levels associated with toxicity): No clinical benefit
